The values below come from patent US20210255184A1, “Biosensor Device and Methods” (The New Zealand Institute for Plant and Food Research …, priority 2018, published 2021).

Entries after “also recorded” stand apart in the source; their conditions may differ.

For one assay, the target named is T1, Or10a (Drosophila melanogaster, UniProt Q9VYZ1).
T1 construct: his-tag; made in house; host or cells: baculovirus-infected Sf9 cells
T1 sequence (Q9VYZ1 1-406): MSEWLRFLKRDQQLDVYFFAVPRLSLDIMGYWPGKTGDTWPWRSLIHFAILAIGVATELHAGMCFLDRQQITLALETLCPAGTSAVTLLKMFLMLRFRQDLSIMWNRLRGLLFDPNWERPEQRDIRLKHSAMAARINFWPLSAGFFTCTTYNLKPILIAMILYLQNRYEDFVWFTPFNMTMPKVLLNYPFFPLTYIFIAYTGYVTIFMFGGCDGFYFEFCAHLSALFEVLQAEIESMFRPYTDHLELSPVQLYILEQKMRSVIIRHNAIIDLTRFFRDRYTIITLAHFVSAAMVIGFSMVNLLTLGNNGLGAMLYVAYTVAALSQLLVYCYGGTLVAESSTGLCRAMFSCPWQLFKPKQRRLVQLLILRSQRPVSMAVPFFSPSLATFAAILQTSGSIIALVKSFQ
As to the kind of experiment: QCM-D sensor, Or10a liposomes. Format: biochemical. The note with it: 1.6 to 1000 μM in PBS with 1% DMSO. The method, then:
Gold (100 nm) sensor crystals were sonicated in ethanol and milli-Q water for 15 minutes each respectively. A 5:1:1 volume ratio of milli-Q water, ammonia (25%), and hydrogen peroxide (30%) was heated to 75° C. for 5 minutes and the sonicated crystals were placed in the heated solution for 5 minutes. Then the crystals were removed from the solution and rinsed with milli-Q water before drying with nitrogen gas. The clean gold crystals were thiol-functionalized by exposing them to 2 mM ethanolic solution of MHA overnight followed by washing with ethanol solution in order to remove excess or loosely bound molecules. NHS/EDC was prepared using 2:1 mol:mol ratio of EDC:NHS (100 mM EDC, 50 mM NHS) in 2 ml PBS (pH=6.5) solution. Each OrX/liposome stock solution was diluted 100 fold for QCM-D measurements in PBS buffer solution (pH=7.4). The SAM functionalized crystals were then placed into the Q-sense analyser instrument (Biolin Scientific) chamber and flowed with the NHS/EDC, Or10a/liposomes or Or10a/Orco liposomes, and various concentrations of methyl hexanoate (1.6 μM, 8 μM, 20 μM, 40 μM, 100 μM, 200 μM, 500 μM and 1000 μM) in PBS buffer solution containing 1% DMSO to measure the changes in frequency (Δf) and dissipation (ΔD) values.

The target of another assay is T2, Orco (Drosophila melanogaster, UniProt Q9VNB5).
T2 construct: his-tag; made in house; host or cells: baculovirus-infected Sf9 cells
T2 sequence (Q9VNB5 1-486): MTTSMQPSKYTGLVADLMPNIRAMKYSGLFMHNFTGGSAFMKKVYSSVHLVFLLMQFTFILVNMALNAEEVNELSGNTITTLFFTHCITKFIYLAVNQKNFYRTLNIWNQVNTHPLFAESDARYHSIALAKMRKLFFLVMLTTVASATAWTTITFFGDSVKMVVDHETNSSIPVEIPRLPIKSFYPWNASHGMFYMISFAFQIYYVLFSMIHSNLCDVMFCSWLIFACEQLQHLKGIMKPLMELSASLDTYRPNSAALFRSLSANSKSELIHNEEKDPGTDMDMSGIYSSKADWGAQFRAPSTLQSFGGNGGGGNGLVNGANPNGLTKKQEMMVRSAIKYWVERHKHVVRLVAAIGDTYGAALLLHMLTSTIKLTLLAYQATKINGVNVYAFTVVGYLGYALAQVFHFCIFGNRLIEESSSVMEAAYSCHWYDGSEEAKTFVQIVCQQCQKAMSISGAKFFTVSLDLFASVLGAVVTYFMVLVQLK
As to the kind of experiment: EIS sensor, Orco liposomes (specificity control). The following applies: Orco only liposomes. Format: biochemical. As for the experimental part:
Prior to their use, liposomes were defrosted on ice and then destabilized by incubating with 0.2% CHAPS for 15 min at room temperature. Then 200 μg of purified odorant receptor^28 was added to 1 mg of liposomes and rotated at 10 rpm for 1 h at room temperature. Excess detergent was removed by four additions of 25 mg of Bio-Beads SM-2 (Bio-Rad, USA) and incubation at 4° C. for 30 min, 2 h, overnight and a further 2 h respectively. The Bio-Beads were removed after each incubation period. The OrX or OrX/Orco integrated liposomes were pelleted by centrifugation at 100,000 g for 1 h, and were resuspended in 500 μL of rehydration buffer. Integration of OrXs and Orco into liposomes was assessed by density gradient ultracentrifugation (DGU) using Accudenz (Accurate Chemical & Scientific Corporation, USA). The integrated liposomes were brought to 40% Accudenz by the addition of an equal volume of 80% Accudenz solution, placed at the bottom of an ultra-centrifugation tube, and overlaid with 30% Accudenz solution, and DGU buffer (25 mM HEPES pH 7.5, 100 mM NaCl, 10% glycerol). The sample was then centrifuged at 100,000 g for 4 h at 4° C. […]
PBS solution was prepared by immersing one tablet of PBS in 200 ml of milli-Q water (according to manufacturers instructions) and filtered using 0.2-μm syringe filter. The pH of the prepared buffer solution was measured with a pH meter. […]

Turning to `CCCCCC(=O)OC` [methyl hexanoate], the “change in oscillation frequency on ligand exposure” value on Or10a is listed as “negligible response; also recorded: not observed”. Further, the “sensor response to ligand” value on Orco is reported as “negligible response”.
For the molecule `COC(=O)c1ccccc1O` [methyl salicylate], on Or10a, the “change in oscillation frequency on ligand exposure” value is “increase in the frequency”. Also, at Orco, the “sensor response to ligand” value is on record as “negligible response”.
